How the values were obtained:
[1] = system: blackgrass (Alopecurus myosuroides); assay: Test A postemergence, blackgrass; format: in vivo; conditions: Alopecurus myosuroides, post-emergence, 240 h, 0 to 100 scale (0 no effect, 100 complete control), read-out: Plant response rating, Blackgrass; for pest or weed control at 31 g/ha: 31 g ai/ha; for pest or weed control at 125 g/ha: 125 g ai/ha
kochia (Kochia scoparia) [2] = assay: Test A preemergence, kochia; format: in vivo; conditions: Bassia scoparia, pre-emergence, 240 h, 0 to 100 scale (0 no effect, 100 complete control), read-out: Plant response rating, Kochia; for pest or weed control at 31 g/ha: 31 g ai/ha; for pest or weed control at 125 g/ha: 125 g ai/ha
rice (Oryza sativa) = assay: Test B flooded paddy test, rice; conditions: Oryza sativa, read-out: Plant response rating, Rice (0 to 100 scale, 0 is no effect, 100 is complete control)
[3] = system: galium (catchweed bedstraw, Galium aparine); assay: Test A postemergence, galium; format: in vivo; conditions: Galium, post-emergence, 240 h, 0 to 100 scale (0 no effect, 100 complete control), read-out: Plant response rating, Galium; for pest or weed control at 31 g/ha: 31 g ai/ha; for pest or weed control at 125 g/ha: 125 g ai/ha
[4] = system: ragweed (common ragweed, Ambrosia elatior); assay: Test A postemergence, ragweed; format: in vivo; conditions: Ambrosia artemisiifolia, post-emergence, 240 h, 0 to 100 scale (0 no effect, 100 complete control), read-out: Plant response rating, Ragweed; for pest or weed control at 31 g/ha: 31 g ai/ha; for pest or weed control at 125 g/ha: 125 g ai/ha
[5] = system: wheat (Triticum aestivum); assay: Test A postemergence, wheat; format: in vivo; conditions: Triticum aestivum, post-emergence, 240 h, 0 to 100 scale (0 no effect, 100 complete control), read-out: Plant response rating, Wheat; for plant injury at 31 g/ha: 31 g ai/ha; for plant injury at 125 g/ha: 125 g ai/ha
[6] = system: pigweed (Amaranthus retroflexus); assay: Test A postemergence, pigweed; format: in vivo; conditions: Amaranthus retroflexus, post-emergence, 240 h, 0 to 100 scale (0 no effect, 100 complete control), read-out: Plant response rating, Pigweed; for pest or weed control at 31 g/ha: 31 g ai/ha; for pest or weed control at 125 g/ha: 125 g ai/ha
[7] = system: ragweed (common ragweed, Ambrosia elatior); assay: Test A preemergence, ragweed; format: in vivo; conditions: Ambrosia artemisiifolia, pre-emergence, 240 h, 0 to 100 scale (0 no effect, 100 complete control), read-out: Plant response rating, Ragweed; for pest or weed control at 31 g/ha: 31 g ai/ha; for pest or weed control at 125 g/ha: 125 g ai/ha
kochia (Kochia scoparia) [8] = assay: Test A postemergence, kochia; format: in vivo; conditions: Bassia scoparia, post-emergence, 240 h, 0 to 100 scale (0 no effect, 100 complete control), read-out: Plant response rating, Kochia; for pest or weed control at 31 g/ha: 31 g ai/ha; for pest or weed control at 125 g/ha: 125 g ai/ha
[9] = system: barnyardgrass (Echinochloa crus-galli); assay: Test B flooded paddy test, barnyardgrass; conditions: Echinochloa crus-galli, read-out: Plant response rating, Barnyardgrass (0 to 100 scale, 0 is no effect, 100 is complete control)
[10] = system: ducksalad (Heteranthera limosa); assay: Test B flooded paddy test, ducksalad; conditions: Heteranthera limosa, read-out: Plant response rating, Ducksalad (0 to 100 scale, 0 is no effect, 100 is complete control)
[11] = system: pigweed (Amaranthus retroflexus); assay: Test A preemergence, pigweed; format: in vivo; conditions: Amaranthus retroflexus, pre-emergence, 240 h, 0 to 100 scale (0 no effect, 100 complete control), read-out: Plant response rating, Pigweed; for pest or weed control at 31 g/ha: 31 g ai/ha; for pest or weed control at 125 g/ha: 125 g ai/ha
[12] = system: ryegrass, Italian (Italian ryegrass, Lolium multiflorum); assay: Test A preemergence, ryegrass, Italian; format: in vivo; conditions: Lolium multiflorum, pre-emergence, 240 h, 0 to 100 scale (0 no effect, 100 complete control), read-out: Plant response rating, Ryegrass, Italian; for pest or weed control at 31 g/ha: 31 g ai/ha; for pest or weed control at 125 g/ha: 125 g ai/ha
corn (Zea mays) = assay: Test A postemergence, corn; format: in vivo; conditions: Zea mays, post-emergence, 240 h, 0 to 100 scale (0 no effect, 100 complete control); for Corn plant response rating (crop injury, 0 = no effect, 100 = complete kill) at 31 g/ha: 31 g ai/ha; for Corn plant response rating (crop injury, 0 = no effect, 100 = complete kill) at 125 g/ha: 125 g ai/ha
[13] = system: barnyardgrass (Echinochloa crus-galli); assay: Test A preemergence, barnyardgrass; format: in vivo; conditions: Echinochloa crus-galli, pre-emergence, 240 h, 0 to 100 scale (0 no effect, 100 complete control), read-out: Plant response rating, Barnyardgrass; for pest or weed control at 31 g/ha: 31 g ai/ha; for pest or weed control at 125 g/ha: 125 g ai/ha
[14] = system: barnyardgrass (Echinochloa crus-galli); assay: Test A postemergence, barnyardgrass; format: in vivo; conditions: Echinochloa crus-galli, post-emergence, 240 h, 0 to 100 scale (0 no effect, 100 complete control), read-out: Plant response rating, Barnyardgrass; for pest or weed control at 31 g/ha: 31 g ai/ha; for pest or weed control at 125 g/ha: 125 g ai/ha
[15] = system: ryegrass, Italian (Italian ryegrass, Lolium multiflorum); assay: Test A postemergence, ryegrass, Italian; format: in vivo; conditions: Lolium multiflorum, post-emergence, 240 h, 0 to 100 scale (0 no effect, 100 complete control), read-out: Plant response rating, Ryegrass, Italian; for pest or weed control at 31 g/ha: 31 g ai/ha; for pest or weed control at 125 g/ha: 125 g ai/ha

| Compound | pest or weed control at 31 g/ha [1] [%] | pest or weed control at 125 g/ha [1] [%] | pest or weed control at 31 g/ha (kochia (Kochia scoparia) [2]) [%] | pest or weed control at 125 g/ha (kochia (Kochia scoparia) [2]) [%] | plant injury at 250 g/ha (rice (Oryza sativa)) [%] | pest or weed control at 31 g/ha [3] [%] | pest or weed control at 125 g/ha [3] [%] | pest or weed control at 31 g/ha [4] [%] | pest or weed control at 125 g/ha [4] [%] | plant injury at 31 g/ha [5] [%] | plant injury at 125 g/ha [5] [%] | pest or weed control at 31 g/ha [6] [%] | pest or weed control at 125 g/ha [6] [%] | pest or weed control at 31 g/ha [7] [%] | pest or weed control at 125 g/ha [7] [%] | pest or weed control at 31 g/ha (kochia (Kochia scoparia) [8]) [%] | pest or weed control at 125 g/ha (kochia (Kochia scoparia) [8]) [%] | pest or weed control at 250 g/ha [9] [%] | pest or weed control at 250 g/ha [10] [%] | pest or weed control at 31 g/ha [11] [%] | also measured |
| --- | --- | --- | --- | --- | --- | --- | --- | --- | --- | --- | --- | --- | --- | --- | --- | --- | --- | --- | --- | --- | --- |
| O=C1COC(CCCC(F)(F)F)c2c(Oc3ncc(Cl)cn3)cccc21 (centres unmarked) [Compound 5, 8-[(5-Chloro-2-pyrimidinyl)oxy]-1-(4,4,4-trifluorobutyl)-1H-2-benzopyran-4(3H)-one] | 10 | 10 | 0 | 0 | 40 | 0 | 30 | 0 | 0 | 0 | 0 | 10 | 90 | 0 | 0 | 0 | 10 | 0 | 60 | 0 | pest or weed control at 125 g/ha [11]: 90%; pest or weed control at 31 g/ha [12]: 0%; pest or weed control at 125 g/ha [12]: 0%; Corn plant response rating (crop injury, 0 = no effect, 100 = complete kill) at 31 g/ha (corn (Zea mays)): 0%; Corn plant response rating (crop injury, 0 = no effect, 100 = complete kill) at 125 g/ha (corn (Zea mays)): 10%; pest or weed control at 31 g/ha [13]: 0%; pest or weed control at 125 g/ha [13]: 0%; pest or weed control at 31 g/ha [14]: 0%; pest or weed control at 125 g/ha [14]: 10%; pest or weed control at 31 g/ha [15]: 0%; pest or weed control at 125 g/ha [15]: 10% |
| CN1C(=O)c2cccc(Oc3ncc(Cl)cn3)c2C1CCCC(F)(F)F (centres unmarked) [Compound 12, 4-[(5-Chloro-2-pyrimidinyl)oxy]-2,3-dihydro-2-methyl-3-(4,4,4-trifluorobutyl)-1H-isoindol-1-one] | 0 | 0 | 0 | 0 | 0 | 0 | 10 | 0 | 20 | 0 | 0 | 0 | 30 | 0 | 0 | 0 | 10 | 0 | 0 | 0 | pest or weed control at 125 g/ha [11]: 0%; pest or weed control at 31 g/ha [12]: 0%; pest or weed control at 125 g/ha [12]: 0%; Corn plant response rating (crop injury, 0 = no effect, 100 = complete kill) at 31 g/ha (corn (Zea mays)): 0%; Corn plant response rating (crop injury, 0 = no effect, 100 = complete kill) at 125 g/ha (corn (Zea mays)): 10%; pest or weed control at 31 g/ha [13]: 0%; pest or weed control at 125 g/ha [13]: 0%; pest or weed control at 31 g/ha [14]: 0%; pest or weed control at 125 g/ha [14]: 0%; pest or weed control at 31 g/ha [15]: 0%; pest or weed control at 125 g/ha [15]: 0% |

Source: patent US11427549B2, “Pyrimidinyloxy benzo-fused compounds as herbicides” (FMC Corporation, priority 2017, dated 2022)
